Our source for the IC50 values is patent US9067914B1, “Tropomyosin-related kinase (TRK) inhibitors” (Genzyme Corporation, priority 2013, dated 2015).

Structures can show the parent of a compound that is named as a salt.

One assay deals with TrkA (Homo sapiens (Human), UniProt P04629). Kind of assay: TrkA activity, off-chip mobility shift assay (LabChip 3000). The class given is biochemical. The note with it: 55 μM ATP (ATP Km); n/d = none detected. The text has this:
(§1) Reagents and consumables were purchased from Sigma Aldrich, Carna Biosciences, or Caliper Life Sciences. All assay reaction conditions for IC50 determinations were within the linear range with respect to time and enzyme concentration. […] The LabChip 3000 separates and measures the fluorescent signal of fluorescein labeled peptide substrate and fluorescein labeled peptide product present in each well. Results are expressed as percent conversion by measuring peak height for both the substrate and product and dividing the product peak height by the sum of peak heights for both substrate and product.

Another assay deals with TrkB (Homo sapiens (Human), UniProt Q16620). Kind of assay: TrkB activity, off-chip mobility shift assay (LabChip 3000). The format is biochemical. The note with it: 70 μM ATP (ATP Km); n/d = none detected.
Description: as §1

TrkA, sequence (P04629 33-796): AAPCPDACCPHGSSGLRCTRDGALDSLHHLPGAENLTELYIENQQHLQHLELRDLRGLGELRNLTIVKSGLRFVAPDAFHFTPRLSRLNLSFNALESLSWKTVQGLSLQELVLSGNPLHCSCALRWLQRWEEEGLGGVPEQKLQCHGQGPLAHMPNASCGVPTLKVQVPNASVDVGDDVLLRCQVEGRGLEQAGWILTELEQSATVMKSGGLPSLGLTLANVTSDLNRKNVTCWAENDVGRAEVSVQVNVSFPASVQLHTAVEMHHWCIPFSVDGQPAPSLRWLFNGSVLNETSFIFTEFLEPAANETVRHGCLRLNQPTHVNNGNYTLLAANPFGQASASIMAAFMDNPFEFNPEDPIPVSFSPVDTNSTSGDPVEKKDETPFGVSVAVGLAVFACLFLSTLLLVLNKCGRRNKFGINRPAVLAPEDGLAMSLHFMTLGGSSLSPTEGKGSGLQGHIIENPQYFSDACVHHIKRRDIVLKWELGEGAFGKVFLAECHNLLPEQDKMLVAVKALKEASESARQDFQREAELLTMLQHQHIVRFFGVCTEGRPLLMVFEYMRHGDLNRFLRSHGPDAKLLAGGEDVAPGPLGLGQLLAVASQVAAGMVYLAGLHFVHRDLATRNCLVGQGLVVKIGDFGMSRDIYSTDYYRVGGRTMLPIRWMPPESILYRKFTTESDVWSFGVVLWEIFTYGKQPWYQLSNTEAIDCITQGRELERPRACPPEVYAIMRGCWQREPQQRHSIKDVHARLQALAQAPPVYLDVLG
TrkB, sequence (Q16620 32-822): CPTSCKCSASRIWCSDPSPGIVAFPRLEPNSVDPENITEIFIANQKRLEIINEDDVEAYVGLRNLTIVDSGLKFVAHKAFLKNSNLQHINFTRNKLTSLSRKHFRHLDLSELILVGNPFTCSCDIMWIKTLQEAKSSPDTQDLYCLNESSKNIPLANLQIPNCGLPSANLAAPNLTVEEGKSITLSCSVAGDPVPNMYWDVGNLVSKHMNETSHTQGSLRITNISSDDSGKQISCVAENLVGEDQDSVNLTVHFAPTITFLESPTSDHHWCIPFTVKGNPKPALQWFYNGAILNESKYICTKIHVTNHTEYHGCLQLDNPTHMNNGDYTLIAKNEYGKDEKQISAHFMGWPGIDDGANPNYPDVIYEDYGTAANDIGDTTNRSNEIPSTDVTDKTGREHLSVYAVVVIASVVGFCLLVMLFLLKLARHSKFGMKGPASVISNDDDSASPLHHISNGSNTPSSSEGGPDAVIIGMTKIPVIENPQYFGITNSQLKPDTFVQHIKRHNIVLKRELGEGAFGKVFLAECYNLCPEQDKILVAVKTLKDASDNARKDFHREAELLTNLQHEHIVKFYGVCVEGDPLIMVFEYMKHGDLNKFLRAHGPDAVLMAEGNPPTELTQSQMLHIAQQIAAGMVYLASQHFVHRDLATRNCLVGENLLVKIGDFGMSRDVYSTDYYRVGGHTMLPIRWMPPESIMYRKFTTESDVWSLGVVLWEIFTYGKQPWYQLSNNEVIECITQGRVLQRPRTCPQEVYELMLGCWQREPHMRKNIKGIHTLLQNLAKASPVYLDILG

`COc1cc(Cn2c(N)nc3cc(-c4cnn(C)c4)cnc32)ccc1OCc1ccc(C(F)(F)C(F)(F)F)cc1` [Ex. 3-39, 3-(3-methoxy-4-((4-(perfluoroethyl)benzyl)oxy)benzyl)-6-(1-methyl-1H-pyrazol-4-yl)-3H-imidazo[4,5-b]pyridin-2-amine]: the half-inhibitory concentration (IC50) turned out to be 0.3 nM on TrkA and 0.6 nM on TrkB.
As to `COc1cc(Cn2c(N)nc3cc(-c4cnn(C)c4)cnc32)ccc1OCc1ccc(C(C)C)nc1` [Ex. 3-40-3, 3-(4-((6-isopropylpyridin-3-yl)methoxy)-3-methoxybenzyl)-6-(1-methyl-1H-pyrazol-4-yl)-3H-imidazo[4,5-b]pyridin-2-amine], the IC50 on TrkA and on TrkB was 0.2 nM in each case.
Consider `COc1ccc(COc2ccc(Cn3c(N)nc4cc(C#CC5CCCCC5)cnc43)cc2OC)cn1` [Ex. 3-41, 6-(cyclohexylethynyl)-3-(3-methoxy-4-((6-methoxypyridin-3-yl)methoxy)benzyl)-3H-imidazo[4,5-b]pyridin-2-amine], for which the half-maximal inhibitory concentration (IC50) on TrkA turned out to be 65 nM; at TrkB, 80 nM.
With `COc1ccc(COc2ccc(Cn3c(N)nc4cc(-c5cnn(C)c5)ccc43)cc2OC)cc1` [Ex. 3-1, 1-(3-Methoxy-4-((4-methoxybenzyl)oxy)benzyl)-5-(1-methyl-1H-pyrazol-4-yl)-1H-benzo[d]imidazol-2-amine], the IC50 on TrkA came out at 1 nM; at TrkB, 0.5 nM.
The matching figures for `COc1ccc(COc2ccc(Cn3cnc4cc(-c5cnn(C6CCNCC6)c5)cnc43)cc2OC)cn1` [Ex. 3-19, 3-(3-Methoxy-4-((6-methoxypyridin-3-yl)methoxy)benzyl)-6-(1-(piperidin-4-yl)-1H-pyrazol-4-yl)-3H-imidazo[4,5-b]pyridine]: 1 nM and 0.9 nM.
As to `COc1ccc(COc2ccc(Cn3cnc4cc(N5CCC[C@H]5C(=O)O)cnc43)cc2OC)cn1` [Ex. 3-18-7, (S)-1-(3-(3-Methoxy-4-((6-methoxypyridin-3-yl)methoxy)benzyl)-3H-imidazo[4,5-b]pyridin-6-yl)pyrrolidine-2-carboxylic acid], the IC50 on TrkA was determined as 8 nM; at TrkB, 13 nM.
The matching figures for `COc1ccc(COc2ccc(Cn3cnc4cc(-c5nnc(C6CCNCC6)o5)cnc43)cc2OC)cn1` [Ex. 3-23, 2-(3-(3-Methoxy-4-((6-methoxypyridin-3-yl)methoxy)benzyl)-3H-imidazo[4,5-b]pyridin-6-yl)-5-(piperidin-4-yl)-1,3,4-oxadiazole]: 51 nM and 57 nM.
`COc1cc(C(C)n2c(N)nc3cc(-c4cnn(C)c4)cnc32)ccc1OCc1ccc(C(F)(F)F)nc1` (stereo not shown) [Ex. 3-53, 3-(1-(3-methoxy-4-((6-(trifluoromethyl)pyridin-3-yl)methoxy)phenyl)ethyl)-6-(1-methyl-1H-pyrazol-4-yl)-3H-imidazo[4,5-b]pyridin-2-amine]: the concentration for half-maximal inhibition (IC50) on TrkA is 0.4 nM; at TrkB, 0.6 nM.
In the same order, the values of `COc1ccc(COc2ccc(Cn3c(N)nc4cc(N5CCN(C)CC5=O)ccc43)cc2OC)cn1` [Ex. 3-14, 1-(2-Amino-1-(3-methoxy-4-((6-methoxypyridin-3-yl)methoxy)benzyl)-1H-benzo[d]imidazol-5-yl)-4-methylpiperazin-2-one] are 8980 nM and 4370 nM.
In the same order, the values of `COc1ccc(COc2ccc(Cn3c(N)nc4cc(-c5ccccn5)cnc43)cc2OC)cn1` [Ex. 3-38, 3-(3-methoxy-4-((6-methoxypyridin-3-yl)methoxy)benzyl)-6-(pyridin-2-yl)-3H-imidazo[4,5-b]pyridin-2-amine] are 4 nM and 2 nM.
Consider `COc1ccc(COc2ccc(Cn3c(N)nc4cc(-c5ccc(F)cc5)cnc43)cc2OC)cn1` [Ex. 3-37-1, 6-(4-fluorophenyl)-3-(3-methoxy-4-((6-methoxypyridin-3-yl)methoxy)benzyl)-3H-imidazo[4,5-b]pyridin-2-amine], for which the IC50 on TrkA is 9 nM; on TrkB, 4 nM.
In the case of `COc1cc(C(C)n2c(N)nc3cc(C#CCCO)cnc32)ccc1OCc1ccc(C(F)(F)F)nc1` (stereo not shown) [Ex. 3-55, 4-(2-amino-3-(1-(3-methoxy-4-((6-(trifluoromethyl)pyridin-3-yl)methoxy)phenyl)ethyl)-3H-imidazo[4,5-b]pyridin-6-yl)but-3-yn-1-ol], the IC50 on TrkA and at TrkB was 1 nM in each case.
`COc1ccc(COc2ccc(Cn3c(N)nc4cc(N5CCN(C)CC5)ccc43)cc2OC)cn1` [Ex. 3-26, 1-(3-methoxy-4-((6-methoxypyridin-3-yl)methoxy)benzyl)-5-(4-methylpiperazin-1-yl)-1H-benzo[d]imidazol-2-amine]: the IC50 was 590 nM on TrkA and 315 nM on TrkB.
In the same order, the values of `COc1ccc(COc2ccc(Cn3cnc4cc(-n5cc(C6CCCNC6)nn5)cnc43)cc2OC)cn1` (stereo not shown) [Ex. 3-25, 3-(3-Methoxy-4-((6-methoxypyridin-3-yl)methoxy)benzyl)-6-(4-(piperidin-3-yl)-1H-1,2,3-triazol-1-yl)-3H-imidazo[4,5-b]pyridine] are 32 nM and 18 nM.
In the same order, the values of `COc1ccc(COc2ccc(Cn3c(N)nc4cc(-c5ccc(P(C)(C)=O)nc5)cnc43)cc2OC)cc1` [Ex. 3-16, (5-(2-Amino-3-(3-methoxy-4-((4-methoxybenzyl)oxy)benzyl)-3H-imidazo[4,5-b]pyridin-6-yl)pyridin-2-yl)dimethylphosphine oxide] are 0.5 nM and 0.2 nM.
The matching figures for `COc1ccc(COc2ccc(Cn3cnc4cc(N5CCN(C)CC5=O)ccc43)cc2OC)cn1` [Ex. 3-29, 1-(1-(3-Methoxy-4-((6-methoxypyridin-3-yl)methoxy)benzyl)-1H-benzo[d]imidazol-5-yl)-4-methylpiperazin-2-one]: 6020 nM and 4280 nM.
For the molecule `COc1ccc(COc2ccc(Cn3c(N)nc4cc(-c5ccccc5)cnc43)cc2OC)cn1` [Ex. 3-36, 3-(3-methoxy-4-((6-methoxypyridin-3-yl)methoxy)benzyl)-6-phenyl-3H-imidazo[4,5-b]pyridin-2-amine], the IC50 on TrkA stood at 6 nM; on TrkB, 4 nM.
The matching figures for `COc1ccc(C(C)Oc2ccc(Cn3cnc4cc(-c5ccnn5C)cnc43)cc2OC)cn1` (stereo not shown) [Ex. 3-58-1, 3-(3-methoxy-4-(1-(6-methoxypyridin-3-yl)ethoxy)benzyl)-6-(1-methyl-1H-pyrazol-5-yl)-3H-imidazo[4,5-b]pyridine formate]: 449 nM and 219 nM.
With `COc1ccc(COc2ccc(Cn3cnc4cc(N5CC6(CCNCC6)C5)ccc43)cc2OC)cn1` [Ex. 3-11, 1-(3-methoxy-4-((6-methoxypyridin-3-yl)methoxy)benzyl)-5-(2,7-diazaspiro[3.5]nonan-2-yl)-1H-benzo[d]imidazole], the figures for the half-maximal inhibitory concentration (IC50) at TrkA and on TrkB were 135 nM and 120 nM, respectively.
The matching figures for `COc1ccc(COc2ccc(Cn3cnc4cc(N5CCN6CCC5CC6)cnc43)cc2OC)cn1` [Ex. 3-18-4, 4-(3-(3-Methoxy-4-((6-methoxypyridin-3-yl)methoxy)benzyl)-3H-imidazo[4,5-b]pyridin-6-yl)-1,4-diazabicyclo[3.2.2]nonane]: 470 nM and 349 nM.
Consider `COc1cc(Cn2c(N)nc3cc(-c4cnn(C)c4)cnc32)ccc1OCc1ccc(SC(F)(F)F)cc1` [Ex. 3-40-2, 3-(3-methoxy-4-((4-((trifluoromethyl)thio)benzyl)oxy)benzyl)-6-(1-methyl-1H-pyrazol-4-yl)-3H-imidazo[4,5-b]pyridin-2-amine], for which the IC50 on TrkA was determined as 0.2 nM; at TrkB, 0.6 nM.
For the molecule `COc1cc(Cn2c(N)nc3cc(-c4cnn(C)c4)cnc32)ccc1OCc1ccc(OC(F)(F)F)cc1` [Ex. 3-40-1, 3-(3-methoxy-4-((4-(trifluoromethoxy)benzyl)oxy)benzyl)-6-(1-methyl-1H-pyrazol-4-yl)-3H-imidazo[4,5-b]pyridin-2-amine], the half-maximal inhibitory concentration (IC50) at TrkA and at TrkB was 0.2 nM each time.
On to `COc1cc(C(C)n2cnc3cc(-c4cnn(C)c4)ccc32)ccc1OCc1ccc(C(F)(F)F)nc1` (stereo not shown) [Ex. 3-48-1, 1-(1-(3-methoxy-4-((6-(trifluoromethyl)pyridin-3-yl)methoxy)phenyl)ethyl)-5-(1-methyl-1H-pyrazol-4-yl)-1H-benzo[d]imidazole], for which the values for the IC50 on TrkA and at TrkB were 102 nM and 14 nM, respectively.
In the same order, the values of `COc1ccc(C(C)Oc2ccc(Cn3cnc4cc(-c5ccnc(F)c5)cnc43)cc2OC)cn1` (stereo not shown) [Ex. 3-58-3, 6-(2-fluoropyridin-4-yl)-3-(3-methoxy-4-(1-(6-methoxypyridin-3-yl)ethoxy)benzyl)-3H-imidazo[4,5-b]pyridine formate] are 215 nM and 68 nM.
For the molecule `COc1ccc(COc2ccc(Cn3cnc4cc(-c5noc(C6CCNCC6)n5)ccc43)cc2OC)cn1` [Ex. 3-22, 3-(1-(3-Methoxy-4-((6-methoxypyridin-3-yl)methoxy)benzyl)-1H-benzo[d]imidazol-5-yl)-5-(piperidin-4-yl)-1,2,4-oxadiazole], the 50% inhibitory concentration (IC50) on TrkA amounted to 306 nM; at TrkB, 317 nM.
In the same order, the values of `COc1ccc(COc2ccc(Cn3c(N)nc4cc(-c5ccncc5)cnc43)cc2OC)cn1` [Ex. 3-37-5, 3-(3-methoxy-4-((6-methoxypyridin-3-yl)methoxy)benzyl)-6-(pyridin-4-yl)-3H-imidazo[4,5-b]pyridin-2-amine] are 2 nM and 0.7 nM.

One may read the IC50 as the midpoint of a concentration-inhibition curve.
